We go through two compounds from paper PMC12866179, “Oxidized MIF is an Alzheimer’s disease drug target relaying external risk factors to tau pathology” (Cell Reports Medicine, 2025).

In one data set the test system is HSV-1. The experiment in a line: HSV-1 infection of differentiated LUHMES cells (immunocytochemistry, western blot). The class given is cell-based, HSV-1 KOS strain. The following applies: infected with HSV-1. As for the experimental part:
4x10^5 Vero cells, 8x10^5 SH-SY5Y or 2x10^6 differentiated LUHMES (differentiation day 6) cells were seeded into 12-well plates. After 24h the cells were treated with compounds (as indicated in the figures) and after 1h they were infected with HSV-1 applying MOIs as described in the figures. After 20h (or at indicated time points) cells were either washed twice with PBS, then lysed in cold PBS/1% NP40 including the cOmplete EDTA-free protease inhibitor cocktail (Roche) and phosphatase inhibitor cocktail (Sigma) or virus was released by freeze-thawing and ultrasonic treatment for analysis in viral plaque assay (see above). For immunocytochemistry analysis 5x10^4 LUHMES cells at differentiation day 2 were seeded on 13 mm coverslips that were coated with L-ornithine and fibronectin (see above) and placed into 24-well plates. After four additional days of differentiation the cells were infected with HSV-1 (MOI = 1). […] After the protein concentration of cell lysates and homogenates had been determined using the DC Protein Assay Kit (Bio-Rad), 20 μg of each sample were dissolved in NuPAGE LDS Sample buffer (including 2% β-mercaptoethanol), boiled at 100°C for 5 min and then separated on NuPAGE Novex 4–12% Bis-Tris midi gels (Invitrogen) using NuPAGE MES SDS Running buffer (Invitrogen). […] Signal intensities were calculated using the Image Studio Version 2.1 software (LI-COR Biosciences). […]
(In general: Immunoblotting shows a protein as a band on a membrane.)

Data set [1] is classed as in vivo. The following applies: compared with PAV-174. As for the experimental part: Figure S5. PAV-17 4 decreases ta u phosphorylation and aggr e gat ion in vi v o. Rel a ted to […]
(A) MTD (Maximum Tol erated Dose) assessment of PAV com pounds in BALB/c mice. BALB/c mice we re dosed through int ra pe rit o ne al (IP ) ro ute at di ff e ren t doses as pe r bo dy we igh t of an ima ls an d mice we re obser ved at di ff e ren t time interval for toxic signs till 48 h, PD (Post dose) . MTD at wa s declared at NOAEL (No-obser ved-adver se-effect level) conc. of PAV […]
(B) PAV-61 7 dose- an d MIF-de pe nd en t ly reduces tau phosphorylati on (A T8) . SH-SY5Y-P301S-control or -MIF-knockdown cel ls we re treated with the indicated concentrations of PAV- […]
cel ls. The di ag ram s show the signals of AT8 normalized to total tau (HT7 ) from six (n =6) in de pe nd en t exper iments. One-wa y ANOVA (Sidak´s post-hoc)
(C) Pharmacokinetic assessment of PAV-61 7 in Sprague Da wley ra ts (S D). Ma le SD ra ts (n=4) we re dosed via three ro utes na me ly intravenous (IV )- 1 mg/kg, (IP )- 5 mg/kg an d per ora l (P O)- 5 mg/kg. Plasma concentration wa s anal yzed at di ff e ren t time intervals. Pharmacokinetic pa ra met e rs we re de t erm ine d usi ng Win No nlin . Cma x (p ea k pl asma concentration) achieved through IV wa s 12 8 ng / mL, IP wa s 36 2. 6 ng / mL an d PO wa s 15 1. 1 ng / mL at Tmax (time of pe ak concentration obser ved) 1 h, 0. 5 h an d 4 h respectively. […]

On to `CCc1cc(N2CCCC2)cc2[s+]c3cc(N4CCCC4)cc(C)c3nc12.[I-]` [PAV-174, 3,7-Di(pyrrolidine-1-yl) 1-ethyl-9-methyl-phenothiazin-5-ium iodide], for which, in the data set on HSV-1, the “viral antigens (HSV-1-gC) in differentiated LUHMES cells” value was “reduced”. On to `[I-].c1cc2nc3ccc(N4CCCC4)cc3[s+]c2cc1N1CCCC1` [PAV-617, 3,7-Di(pyrrolidine-1-yl)phenothiazine-5-ium iodide], for which, in data set [1], the toxicity in mice entry is reported as “less toxic in mice”.
